Assay results taken from patent US20130295115A1, “COMPOSITIONS AND METHODS FOR TREATING […]” (priority 2010, published 2013).

Tested on: VSV
Format: cell-based, Vesicular Stomatitis Virus

For Ammonium Iron(III) Citrate, the VSV binding was “no affect”.
